Data from paper PMC12040169 (PLOS Biology, 2025).

assay: in vitro; details: human, hela cells, % viability

Row | Compound | viability at 28.5 h, 10 µM [%]
1 | CCc1cnc(CN(C)C2CCN(CC(=O)NCc3ccco3)C2)o1 (stereo not shown) [CBK306137] | 94.8
2 | C#CCNS(=O)(=O)c1cccc(C(=O)N2CCOC(CC(=O)OC)C2)c1 (stereo not shown) [CBK306138] | 90.8
3 | CCNC(=O)CN1CCN(C(=O)C(C)(C)c2cccc(C#N)c2)CC1 [CBK306141] | 96.4
4 | Cc1ccc(OCC(=O)NCC(c2cccs2)N2CCOCC2)cc1C (stereo not shown) [CBK306143] | 93.3
5 | CC(C)C(=O)Nc1sc2c(c1C(=O)NCc1cccnc1)CCC2 [CBK306144] | 80.3
6 | CCn1cc(CN2CCCN(C(=O)c3cc(C)on3)CC2)cn1 [CBK306145] | 88.1
7 | CC1CCCCN1C(=O)Cn1cnc2c(Cl)cc(Cl)cc2c1=O (stereo not shown) [CBK306149] | 90.3
8 | CC(C)N(Cc1cccnc1)C(=O)Cn1c(C2CC2)nc2ccccc21 [CBK306156] | 104
9 | CCNS(=O)(=O)c1ccc2c(c1)N(Cc1csnn1)CC2 [CBK306161] | 74.3
10 | Cc1nn(CCS(C)(=O)=O)c(C)c1CN1CCOC(c2ccccc2)C1 (stereo not shown) [CBK306162] | 80.4
11 | O=C(NCC1(CCO)CC1)c1c[nH]nc1-c1cc2ccccc2o1 [CBK306163] | 94.5
12 | O=C(Cn1cnc(-c2nccs2)n1)N1CCCCCC1 [CBK306165] | 97.5
13 | CCCCOc1ccc(C(=O)N(C)c2cnn(C)c2)c(O)c1 [CBK306167] | 89.5
14 | CCCc1ccc(S(=O)(=O)N2CCOC(c3cnn(CC)c3)C2)cc1 (stereo not shown) [CBK306169] | 83.4
15 | CN1CCCc2ccc(S(=O)(=O)NCCc3cn4ccccc4n3)cc21 [CBK306170] | 82.8
16 | CCn1cc(C2CN(S(=O)(=O)c3c(C)c(C)cc(C)c3C)CCO2)cn1 (stereo not shown) [CBK306171] | 63.8
17 | CNS(=O)(=O)c1cccc2c1CCN(C(=O)NC1CCOC1)C2 (stereo not shown) [CBK306172] | 106
18 | O=C(NC1CCCN(CC(F)(F)F)C1=O)c1cnc(-c2ccncc2)s1 (stereo not shown) [CBK306175] | 82.6
19 | CCOc1cc(NC2CCN(C(=O)C(C)CC3CCCC3)CC2)ncn1 (stereo not shown) [CBK306176] | 85.3
20 | CS(=O)(=O)c1ccc(-n2nnnc2CN2CCC3(CCCC3)C2)cc1 [CBK306178] | 89.4
21 | CCC1(C)CCCN(Cc2nnnn2-c2ccc(S(C)(=O)=O)cc2)C1 (stereo not shown) [CBK306180] | 113
22 | CC1(C)CCCN(Cc2nnnn2-c2ccc(S(C)(=O)=O)cc2)C1 [CBK306181] | 91.7
23 | CS(=O)(=O)c1ccc(-n2nnnc2CN2CCC3(CCCCC3)C2)cc1 [CBK306183] | 91.1

Row | Compound | viability at 28.5 h, 10 µM [%]
24 | CCN(CC)S(=O)(=O)c1ccc(CNC(=O)Cc2ccc(Cl)cc2)cc1 [CBK306188] | 105
25 | N#CCCn1cc(C(=O)N2CCOCC2)c(-c2ccc(F)cc2)n1 [CBK306189] | 95.5
26 | O=C(O)c1cc(S(=O)(=O)NCc2ccco2)ccc1Br [CBK306193] | 83.7
27 | N#CCCn1cc(C(=O)N2CCCCC2)c(-c2cccs2)n1 [CBK306194] | 86.5
28 | N#CCCn1cc(C(=O)N2CCOCC2)c(-c2cccs2)n1 [CBK306195] | 110
29 | Cc1cc(C(=O)CSc2nnc(CN3CCCC3)o2)c(C)n1C1CC1 [CBK306199] | 84
30 | CCOCCn1c(N2CC(C)CC(C)C2)nc2c1c(=O)[nH]c(=O)n2C (stereo not shown) [CBK306200] | 83.6
31 | N#CCCn1cc(C(=O)N2CCCCC2)c(-c2cccc(Br)c2)n1 [CBK306202] | 89.4
32 | N#CCCn1cc(C(N)=O)c(-c2cc3ccccc3o2)n1 [CBK306204] | 92.9
33 | CC1CCCCC12NC(=O)N(Cc1nnc(-c3cccs3)o1)C2=O (stereo not shown) [CBK306205] | 82.9
34 | N#CCCn1cc(C(=O)N2CCCCC2)c(-c2cc3ccccc3o2)n1 [CBK306206] | 95.1
35 | N#CCCn1cc(C(=O)N2CCOCC2)c(-c2cccc(Cl)c2)n1 [CBK306208] | 88.2
36 | CCOc1ncccc1C(=O)Nc1cnc2c(cnn2C(C)C)c1 [CBK306210] | 102
37 | Cc1cc(CNC(=O)CCc2c(C)nc3nc(N)nn3c2C)ccc1F [CBK306212] | 91.9
38 | CCN1CCOC(CNc2nc(-c3ccncc3)nc3c2CCC3)C1 (stereo not shown) [CBK306215] | 88.4
39 | CCOc1ccc(CN(C)C(=O)Nc2cc(C)on2)cc1 [CBK306216] | 101
40 | CC(=O)Nc1ccc(CCNC(=O)NCc2nc(C3CC3)no2)cc1 [CBK306221] | 96.1
41 | CC1CCCC(C)N1C(=O)Cn1cnc2c(Cl)cc(Cl)cc2c1=O (stereo not shown) [CBK306222] | 85.7
42 | CC(C)(C)OC(=O)N1CCN(Cc2nnc(Cc3ccccc3)o2)CC1 [CBK306223] | 94.1
43 | CC(C)NC(=O)N(C)C1CCN(c2ncnc3ccccc23)CC1 [CBK306224] | 92.4
44 | COCCN(CCOC)c1ncc(C#N)cc1Cl [CBK306227] | 92.6
45 | CCC(C)c1nnc(C2(c3ccc(Br)cc3)CCOCC2)o1 (stereo not shown) [CBK306229] | 99.7

same assay, conditions: human, hela cells, % viability, bulk resorufin, single well

Row | Compound | viability at 28.5 h, 10 µM [%]
46 | CCCCN1C(=O)C(O)(c2c(C)nn(CCC#N)c2N)c2ccccc21 (stereo not shown) [CBK306211] | 110
